The conditions of series [1]: Matthews et al. 2008; cited from earlier work.
The conditions of series [2]: mildly hyperglycaemic patients with Type 2 diabetes on metformin (Ratner et al. 2010); cited from earlier work.
Series [3] has as its target human GLP1 receptor (Homo sapiens, UniProt P43220). The settings on record: greater affinity vs native GLP1; cited from earlier work.
The test system of series [4] is PKIB in INS1 cells. Nature of the series: PKIB expression (mRNA/protein) in INS1 cells. It is filed as cell-based, rat. The settings on record: DMOG 1 mM. As to the method:
Moreover, RNAi-mediated depletion of HIF-1α also disrupted PKIB induction, whereas HIF-1α over-expression potentiated it (FIG. 5f, FIGS. 10e and 10f).
(§1) INS-1 insulinoma cells were cultured in RPMI (corning cellgro) containing 10% fetal bovine serum (Gemini Bio Products), 100 μg/mL penicillin-streptomycin and 1 mM sodium pyruvate (corning cellgro). MIN6 cells were grown in DMEM (corning cellgro) with 10% FBS, 100 μg/mL penicillin-streptomycin and 70 uM beta-mercaptoethanol. For chronic glucose experiments, cells were maintained under low (2.8 mM) or high (20 mM) glucose for 3 days. Exendin-4 (10 nM), Forskolin (10 μM), KCl (40 mM), DMOG (1 mM) and rapamycin (50 nM) were added to cells as indicated. Cellular cAMP levels were measured using an ELISA kit (Cayman Chemical Company) according to manufacturer's instructions.
Total RNAs from cells or primary islets were extracted using Trizol and cDNA was generated using the Transcriptor First Strand cDNA Synthesis kit (Roche Applied Science). cDNAs were quantified on a lightcycler 480 instrument (Roche Applied Science). […] Libraries were quantitated by Qubit (Invitrogen), and run on a MiSeq instrument with paired-end 75 bp reads using v3 chemistry (Illumina) Data were analyzed by tophat2 and cuffdiff against the mouse mm10 genome build. […]

The subject of series [5] is CREB (Ser133) / CRTC2 in INS1 insulinoma cells. Nature of the series: Immunoblot of CREB phosphorylation and CRTC2 dephosphorylation in INS1 insulinoma cells. The class given is cell-based, rat. The conditions noted are these: within 30 minutes, FSK 10 μM, KCl 40 mM. As to the method: as §1
Total protein from cultured cells or primary islets was extracted in a Tris-HCl buffer containing 0.5% NP40, protease and phosphatase inhibitors. Proteins were quantified using Bradford reagent and separated using SDS-PAGE. For cellular fractionation, cells were resuspended in hypotonic lysis buffer (40 mM TrisHCl PH 7.4, 10 mM NaCl, 1 mM EDTA with DTT and protease inhibitors). Cells were lysed using a dounce homogenizer and centrifuged. Cytosolic supernatants were collected. Nuclear pellets were washed 3 times and resuspended in nuclear extraction buffer (40 mM TrisHCl PH 7.4, 420 mM NaCl, 10% Glycerol, 1 mM EDTA). Samples were sonicated and centrifuged. Nuclear supernatants were collected. […]
(In general: A western blot detects proteins with antibodies after separation by electrophoresis.)

Consider 4 compounds from patent US10258639B2, “Methods for treating insulin resistance and for sensitizing patients to GLP1 agonist therapy” (Research Development Foundation, priority 2014, dated 2019).

Chain of human GLP1 receptor (P43220 24-463): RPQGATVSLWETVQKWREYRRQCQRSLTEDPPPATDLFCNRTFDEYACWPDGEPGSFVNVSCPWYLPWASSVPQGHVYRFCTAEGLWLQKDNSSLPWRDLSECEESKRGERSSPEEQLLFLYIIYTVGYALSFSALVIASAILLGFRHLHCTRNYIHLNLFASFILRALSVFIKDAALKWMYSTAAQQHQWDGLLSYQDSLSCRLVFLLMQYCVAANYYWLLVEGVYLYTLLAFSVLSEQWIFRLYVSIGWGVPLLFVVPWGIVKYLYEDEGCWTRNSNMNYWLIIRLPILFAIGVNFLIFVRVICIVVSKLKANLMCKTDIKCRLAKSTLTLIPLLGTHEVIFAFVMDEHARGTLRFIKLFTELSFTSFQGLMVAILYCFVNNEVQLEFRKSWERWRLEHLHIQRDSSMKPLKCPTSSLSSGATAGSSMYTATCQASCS

As to “Albiglutide: recombinant human serum albumin (HSA)-GLP1 hybrid protein; dipeptidyl peptidase-4-resistant glucagon-like peptide-1 dimer fused to human albumin”, the half-life after administration result in series [1] was “four to seven”. In the case of “Lixisenatide: exendin-4-based GLP1 receptor agonist”, the glycaemic control entry in series [2] is “significantly improve glycaemic control”. Further, the “affinity for the human GLP1 receptor compared with native GLP1” value in series [3] is “approximately 4 fold”. In the case of `COC(=O)CNC(=O)C(=O)OC` [DMOG], in series [4], the PKIB expression result is reported as “upregulated PKIB expression”. Regarding `[Cl-].[K+]` [KCl], the “phosphorylation of CREB at Ser133” value in series [5] is “stimulated CREB phosphorylation to a lesser extent”.
